Measurements reported in patent US6472348B1, “Pyridone derivatives and herbicides” (Kumiai Chemical Industry Co., Ltd., priority 1996, dated 2002).

Assays:
Type in all cases: in vivo
pale smartweed (Po) = experiment: Test Example 3: herbicidal effects by upland field foliage treatment; design: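 grade of growth control; 5 = at least 90%; 4 = 70 to 90%; 3 = 50 to 70%; 2 = 30 to 50%; 1 = 10 to 30%; 0 = under 10%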; settings: 100 g of the active ingredient per 10 ares, evaluated on the 14th day after treatment
Description: (§1) (Test on Herbicidal Effects by Upland Field Foliage Treatment)
(§2) In a plastic pot (surface area: 120 cm^2) filled with sand, barnyardgrass (Ec), Diaitaria ciliaris (Di), pale smartweed (Po), slender amaranth (Am), common lambsquarters (Ch) and rice flatsedge (Ci) were sown and covered with soil and were cultured in a green house for 2 weeks. […] The plants were then cultured in the green house, and the evaluation of the herbicidal effects was conducted on the 14th day after the treatment in accordance with the standards as identified in Table 47. Symbol—represents “not tested”.

rice flatsedge (Ci) = experiment: as above; design: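 grade of growth control; 5 = at least 90%; 4 = 70 to 90%; 3 = 50 to 70%; 2 = 30 to 50%; 1 = 10 to 30%; 0 = under 10%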; settings: 100 g of the active ingredient per 10 ares, evaluated on the 14th day after treatment
Description: as §1, §2

[1] = tested on: common lambsquarters (Ch); experiment: as above; design: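 grade of growth control; 5 = at least 90%; 4 = 70 to 90%; 3 = 50 to 70%; 2 = 30 to 50%; 1 = 10 to 30%; 0 = under 10%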; settings: 100 g of the active ingredient per 10 ares, evaluated on the 14th day after treatment
Description: as §1, §2

slender amaranth (Am) = experiment: as above; design: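 grade of growth control; 5 = at least 90%; 4 = 70 to 90%; 3 = 50 to 70%; 2 = 30 to 50%; 1 = 10 to 30%; 0 = under 10%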; settings: 100 g of the active ingredient per 10 ares, evaluated on the 14th day after treatment
Description: as §1, §2

barnyardgrass (Ec) [2] = experiment: as above; design: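 grade of growth control; 5 = at least 90%; 4 = 70 to 90%; 3 = 50 to 70%; 2 = 30 to 50%; 1 = 10 to 30%; 0 = under 10%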; settings: 100 g of the active ingredient per 10 ares, evaluated on the 14th day after treatment
Description: as §1, §2

Diaitaria ciliaris (Di) = experiment: as above; design: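 grade of growth control; 5 = at least 90%; 4 = 70 to 90%; 3 = 50 to 70%; 2 = 30 to 50%; 1 = 10 to 30%; 0 = under 10%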; settings: 100 g of the active ingredient per 10 ares, evaluated on the 14th day after treatment
Description: as §1, §2

bulrush (Sc) = experiment: Test Example 1: herbicidal effects by paddy field soil treatment; settings: 100 g of the active ingredient per 10 ares, 21st day after the application, index 0-5 of Table 47;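 note: grade of growth control; 5 = at least 90%; 4 = 70 to 90%; 3 = 50 to 70%; 2 = 30 to 50%; 1 = 10 to 30%; 0 = under 10%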
Description: (§3) (Test on Herbicidal Effects by Paddy Field Soil Treatment)
(§4) In a plastic pot (surface area: 100 cm^2) filled with paddy field soil, barnyardgrass (Ec), monochoria (Mo) and bulrush (Sc) were sown after puddling and leveling, and flooded to a water depth of 3 cm. […] The dose was 100 g of the active ingredient per 10 ares. The plants were then cultured in a green house, and the evaluation of the herbicidal effects was conducted on the 21st day after the application in accordance with the standards as identified in Table 47.

monochoria (Mo) = experiment: as above; settings: 100 g of the active ingredient per 10 ares, 21st day after the application, index 0-5 of Table 47;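 note: grade of growth control; 5 = at least 90%; 4 = 70 to 90%; 3 = 50 to 70%; 2 = 30 to 50%; 1 = 10 to 30%; 0 = under 10%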
Description: as §3, §4

barnyardgrass (Ec) [3] = experiment: as above; settings: 100 g of the active ingredient per 10 ares, 21st day after the application, index 0-5 of Table 47
Description: as §3, §4

Row | Compound | Herbicidal effects Po (pale smartweed (Po)) | Herbicidal effects Ci (rice flatsedge (Ci)) | Herbicidal effects Ch [1] | Herbicidal effects Am (slender amaranth (Am)) | Herbicidal effects Ec (barnyardgrass (Ec) [2]) | Herbicidal effects Di (Diaitaria ciliaris (Di)) | Herbicidal effects Sc (bulrush (Sc)) | Herbicidal effects Mo (monochoria (Mo)) | Herbicidal effects Ec (barnyardgrass (Ec) [3])
1 | CCCC(Sc1cc(-c2ccc(C(F)(F)F)n(C)c2=O)ccc1Cl)C(=O)OCC (racemic) [1-116] | 5 | 5 | 5 | 5 | 4 | 4 | – | – | –
2 | CCOC(=O)C(C)Sc1cc(-c2ccc(C(F)(F)F)n(C)c2=O)c(Cl)cc1Cl (racemic) [1-124] | 5 | 5 | 5 | 5 | 5 | 5 | 5 | 5 | 5
3 | Cn1c(C(F)(F)F)ccc(-c2cc(OCc3ccccc3)c(Cl)cc2F)c1=O [1-23] | – | – | – | – | – | – | 5 | 5 | 5
4 | CCOC(=O)COc1cc(-c2ccc(C(F)(F)F)n(C)c2=O)c(Cl)cc1Cl [1-33] | 4 | 5 | 5 | 5 | 5 | 4 | 5 | 5 | 5
5 | Cn1c(C(F)(F)F)ccc(-c2cc(Oc3ccccc3)c(Cl)cc2Cl)c1=O [1-36] | – | – | – | – | – | – | 5 | 5 | 5
6 | Cn1c(C(F)(F)F)ccc(-c2cc(OC3CCCC3)c(Cl)cc2Cl)c1=O [1-40] | – | – | – | – | – | – | 5 | 5 | 5
7 | CCOC(=O)CSc1cc(-c2ccc(C(F)(F)F)n(C)c2=O)c(F)cc1Cl [1-45] | 5 | 5 | 5 | 5 | 5 | 5 | 5 | 5 | 5
8 | COC(=O)CSc1cc(-c2ccc(C(F)(F)F)n(C)c2=O)c(F)cc1Cl [1-46] | 5 | 5 | 5 | 5 | 5 | 5 | 5 | 5 | 5
9 | Cn1c(C(F)(F)F)ccc(-c2cc(SCC(=O)OC3CCCC3)c(Cl)cc2F)c1=O [1-47] | – | – | – | – | – | – | 5 | 5 | 5
10 | COCCOC(=O)CSc1cc(-c2ccc(C(F)(F)F)n(C)c2=O)c(F)cc1Cl [1-49] | 5 | 5 | 5 | 5 | 5 | 5 | 5 | 5 | 5
11 | CCOC(=O)CSc1cc(-c2ccc(C(F)(F)F)n(C)c2=O)c(Cl)cc1Cl [1-53] | – | – | – | – | – | – | 5 | 5 | 5
12 | COC(=O)CSc1cc(-c2ccc(C(F)(F)F)n(C)c2=O)c(Cl)cc1Cl [1-54] | 4 | 5 | 5 | 5 | 5 | 5 | 5 | 5 | 5
13 | CCOC(=O)CNc1cc(-c2ccc(C(F)(F)F)n(C)c2=O)c(F)cc1Cl [1-63] | 5 | 5 | 5 | 5 | 5 | 5 | – | – | –
14 | Cn1c(C(F)(F)F)ccc(-c2cc(NS(C)(=O)=O)c(Cl)cc2Cl)c1=O [1-75] | – | – | – | – | – | – | 5 | 5 | 5
15 | Cc1cc(-c2ccc(Cl)cc2Cl)c(=O)[nH]c1C(F)(F)F [1-97] | – | – | – | – | – | – | 5 | 5 | 5
16 | CCOC(=O)COc1cc(-c2ccc(C(F)(F)F)n(C)c2=O)ccc1Cl [1-107] | – | – | – | – | – | – | 5 | 5 | 5
17 | Cn1c(C(F)(F)F)ccc(-c2ccc(Cl)c(SCC(=O)OC3CCCC3)c2)c1=O [1-115] | – | – | – | – | – | – | 5 | 5 | 5
18 | Cn1c(C(F)(F)F)ccc(-c2cc(SC3CCCC3)c(Cl)cc2Cl)c1=O [1-128] | – | – | – | – | – | – | 4 | 5 | 5
19 | CC(C)OCCOC(=O)CSc1cc(-c2ccc(C(F)(F)F)n(C)c2=O)c(Cl)cc1Cl [1-129] | 5 | 5 | 5 | 5 | 5 | 5 | – | – | –
20 | CCCOC(=O)CSc1cc(-c2ccc(C(F)(F)F)n(C)c2=O)c(Cl)cc1Cl [1-130] | – | – | – | – | – | – | 5 | 5 | 5
21 | Cn1c(C(F)(F)F)ccc(-c2cc(C(=O)NS(C)(=O)=O)c(Cl)cc2F)c1=O [1-147] | – | – | – | – | – | – | 5 | 5 | 5
22 | COC(=O)Oc1cc(-c2ccc(C(F)(F)F)n(C)c2=O)c(F)cc1Cl [1-153] | – | – | – | – | – | – | 5 | 5 | 5
23 | Cn1c(C(F)(F)F)ccc(-c2ccc3c(c2)NC(=O)CO3)c1=O [2-30] | – | – | – | – | – | – | 5 | 5 | 5
24 | Cn1c(C(F)(F)F)ccc(-c2cc(OC3CCCO3)c(Cl)cc2Cl)c1=O (stereo not drawn) [Compound 1-212] | – | – | – | – | – | – | 4 | 5 | 5
25 | Cn1c(C(F)(F)F)ccc(-c2cc3c(cc2F)OCC(=O)N3CC2CO2)c1=O (stereo not drawn) [Compound 2-20] | – | – | – | – | – | – | 5 | 5 | 5
26 | Cn1cc(-c2ccc(Cl)cc2)c(=O)cc1C(F)(F)F [Compound 6-1] | – | – | – | – | – | – | 5 | 5 | 5
27 | CCOC(=O)C(Cl)Cc1cc(-c2ccc(C(F)(F)F)n(C)c2=O)c(F)cc1Cl (stereo not drawn) [Compound No. 1-139, ethyl 2-chloro-3-[2-chloro-4-fluoro-5-(1methyl-6-trifluoromethyl-2(1H)pyridon-3-yl)]phenyl propionate] | 5 | 5 | 5 | 5 | 5 | 5 | – | – | –
